{"source": "ChEMBL document CHEMBL4145536", "about": "“Design, synthesis and biological evaluation of novel bouchardatine analogs as potential inhibitors of adipogenesis/lipogenesis in 3T3-L1 adipocytes” (Eur J Med Chem, 2018)", "key": {"3T3-L1 [1]": {"test_system": "3T3-L1", "test": "Lipid lowering activity in mouse 3T3L1 cells assessed as decrease in triglyceride level at 5 uM by oil red o-staining based assay", "type": "functional, cell-based", "details": "TDE = time-dependent effect"}, "Mus musculus [2]": {"species": "Mus musculus", "test": "Induction of AMPKalpha phosphorylation at Thr172 residue in mouse 3T3L1 cells at 5 uM after 4 hrs by Western blot analysis", "type": "cell-based"}, "3T3-L1 [3]": {"test_system": "3T3-L1", "test": "Cell cycle arrest in mouse 3T3L1 cells assessed as accumulation at G0/G1 phase at 10 uM after 24 hrs by propidium iodide staining based FACS analysis (reference value: 48.7%)", "type": "functional"}, "3T3-L1 [4]": {"test_system": "3T3-L1", "test": "Lipid lowering activity in mouse 3T3L1 cells assessed as inhibition of adipogenesis by measuring decrease in triglyceride level at 5 uM treated on day 0 to 3 starting from 2 days post confluent by oil red o-staining based assay relative to control", "type": "functional"}, "Mus musculus [5]": {"species": "Mus musculus", "test": "Activation of AMPK pathway in mouse 3T3L1 cells assessed as reduction in C/EBPbeta protein expression at 2 mM after 4 hrs by Western blot analysis", "type": "cell-based"}, "Mus musculus [6]": {"species": "Mus musculus", "test": "Activation of AMPK pathway in mouse 3T3L1 cells assessed as reduction in C/EBPdelta protein expression at 2 mM after 4 hrs by Western blot analysis", "type": "cell-based"}, "3T3-L1 [7]": {"test_system": "3T3-L1", "test": "Lipid lowering activity in mouse 3T3L1 cells assessed as decrease in triglyceride level at 5 uM treated on day 0 to 6 starting from 2 days post confluent by oil red o-staining based assay relative to control", "type": "functional", "design": "scale not given: the % may be the effect or the level left"}, "Mus musculus [8]": {"species": "Mus musculus", "test": "Activation of AMPK pathway in mouse 3T3L1 cells assessed as decrease in C/EBPalpha mRNA level at 1 to 10 uM measured on day 3 post treatment by RT-PCR method", "type": "cell-based"}, "Mus musculus [9]": {"species": "Mus musculus", "test": "Activation of AMPK pathway in mouse 3T3L1 cells assessed as decrease in PPARgamma mRNA level at 1 to 10 uM measured on day 3 post treatment by RT-PCR method", "type": "cell-based"}, "HepG2 [10]": {"test_system": "HepG2", "test": "Cytotoxicity against human HepG2 cells assessed as decrease in cell viability after 24 hrs by MTT assay", "type": "cell-based", "details": "HepG2, 24 h"}, "3T3-L1 [11]": {"test_system": "3T3-L1", "test": "Cell cycle arrest in mouse 3T3L1 cells assessed as decrease in S-phase at 1 to 10 uM after 24 hrs by propidium iodide staining based FACS analysis", "type": "functional"}, "3T3-L1 [12]": {"test_system": "3T3-L1", "test": "Cell cycle arrest in mouse 3T3L1 cells assessed as accumulation at G0/G1 phase at 5 uM after 24 hrs by propidium iodide staining based FACS analysis (reference value: 48.7%)", "type": "functional"}, "Mus musculus [13]": {"species": "Mus musculus", "test": "Activation of AMPK pathway in mouse 3T3L1 cells assessed as reduction in C/EBPdelta protein expression at 5 uM after 4 hrs by Western blot analysis", "type": "cell-based"}, "3T3-L1 [14]": {"test_system": "3T3-L1", "test": "Lipid lowering activity in mouse 3T3L1 cells assessed as decrease in triglyceride level treated 2 days post confluent for 9 days by oil red o-staining based assay", "type": "functional, cell-based"}, "Mus musculus [15]": {"species": "Mus musculus", "test": "Activation of AMPK pathway in mouse 3T3L1 cells assessed as decrease in FAS mRNA level measured on day 6 post treatment by RT-PCR method", "type": "cell-based"}, "3T3-L1 [16]": {"test_system": "3T3-L1", "test": "Lipid lowering activity in mouse 3T3L1 cells assessed as inhibition of terminal differentiation stage by measuring decrease in triglyceride level at 5 uM treated on day 6 to 9 starting from 2 days post confluent by oil red o-staining based assay relative to control", "type": "functional"}, "Mus musculus [17]": {"species": "Mus musculus", "test": "Activation of AMPK pathway in mouse 3T3L1 cells assessed as decrease in SREBP-1c mRNA level at 1 to 10 uM measured on day 6 post treatment by RT-PCR method", "type": "cell-based"}, "Mus musculus [18]": {"species": "Mus musculus", "test": "Activation of AMPK pathway in mouse 3T3L1 cells assessed as decrease in SCD1 mRNA level measured on day 6 post treatment by RT-PCR method", "type": "cell-based"}, "Mus musculus [19]": {"species": "Mus musculus", "test": "Activation of AMPK pathway in mouse 3T3L1 cells assessed as induction of […] phosphorylation at Ser79 residue measured on day 6 post treatment by Western blot analysis", "type": "cell-based"}, "3T3-L1 [20]": {"test_system": "3T3-L1", "test": "Cytotoxicity against mouse 3T3L1 cells assessed as decrease in cell viability up to 10 uM measured up to 72 hrs by LDH release assay", "type": "cell-based", "details": "3t3-l1, 72 h"}, "Mus musculus [21]": {"species": "Mus musculus", "test": "Activation of AMPK pathway in mouse 3T3L1 cells assessed as decrease in C/EBPgamma mRNA level measured after 24 hrs by RT-PCR method", "type": "cell-based"}, "3T3-L1 [22]": {"test_system": "3T3-L1", "test": "Cytotoxicity against mouse 3T3L1 cells assessed as decrease in cell viability after 24 hrs by MTT assay", "type": "cell-based", "details": "3T3-L1, 24 h"}, "3T3-L1 [23]": {"test_system": "3T3-L1", "test": "Lipid lowering activity in mouse 3T3L1 cells assessed as inhibition of lipogenesis by measuring decrease in triglyceride level at 5 uM treated on day 3 to 6 starting from 2 days post confluent by oil red o-staining based assay relative to control", "type": "functional"}, "3T3-L1 [24]": {"test_system": "3T3-L1", "test": "Lipid lowering activity in mouse 3T3L1 cells assessed as decrease in triglyceride level at 5 uM treated on day 0 to 9 starting from 2 days post confluent by oil red o-staining based assay relative to control", "type": "functional", "design": "scale not given: the % may be the effect or the level left"}, "Mus musculus [25]": {"species": "Mus musculus", "test": "Activation of AMPK pathway in mouse 3T3L1 cells assessed as decrease in […] mRNA level measured on day 6 post treatment by RT-PCR method", "type": "cell-based"}, "Mus musculus [26]": {"species": "Mus musculus", "test": "Activation of AMPK pathway in mouse 3T3L1 cells assessed as decrease in C/EBPbeta mRNA level measured after 24 hrs by RT-PCR method", "type": "cell-based"}, "3T3-L1 [27]": {"test_system": "3T3-L1", "test": "Lipid lowering activity in mouse 3T3L1 cells assessed as decrease in triglyceride level at 10 uM for 6 days by oil red o-staining based assay relative to control", "type": "functional", "design": "scale not given: the % may be the effect or the level left"}, "Mus musculus [28]": {"species": "Mus musculus", "test": "Activation of AMPK pathway in mouse 3T3L1 cells assessed as reduction in C/EBPbeta protein expression at 5 uM after 4 hrs by Western blot analysis", "type": "cell-based"}, "3T3-L1 [29]": {"test_system": "3T3-L1", "test": "Inhibition of cell proliferation in mouse 3T3L1 cells assessed as reduction in adipogenic cocktail-induced mitotic cell clonal expansion at 1 to 10 uM after 72 hrs by hemocytometric method", "type": "functional, cell-based"}, "3T3-L1 [30]": {"test_system": "3T3-L1", "test": "Lipid lowering activity in mouse 3T3L1 cells assessed as decrease in triglyceride level at 10 uM for 6 days by oil red o-staining based microscopic assay", "type": "functional, cell-based"}, "HepG2 [31]": {"test_system": "HepG2", "test": "Lipid lowering activity in human HepG2 cells assessed as decrease in triglyceride level at 10 uM for 6 days in presence of oleic acid by oil red o-staining based assay relative to control", "type": "functional", "design": "scale not given: the % may be the effect or the level left"}, "Mus musculus [32]": {"species": "Mus musculus", "test": "Induction of AMPKalpha phosphorylation at Thr172 residue in mouse 3T3L1 cells measured on day 3 post treatment by Western blot analysis", "type": "cell-based"}, "3T3-L1 [33]": {"test_system": "3T3-L1", "test": "Cell cycle arrest in mouse 3T3L1 cells assessed as accumulation at G0/G1 phase at 1 uM after 24 hrs by propidium iodide staining based FACS analysis (reference value: 48.7%)", "type": "functional"}, "[34]": {"test": "Solubility of the compound", "type": "physicochemical"}}, "note": "Active and inactive are the calls of the source. No cut-off for these calls is given here."}
{"compound": "Fc1c(-c2nc(NCCCN3CCCC3)c3ccccc3n2)[nH]c2ccccc12", "values": [{"measurement": "Activity", "setting": "3T3-L1 [1]", "result": "Tde"}, {"measurement": "Activity", "setting": "Mus musculus [2]", "result": "Active"}, {"measurement": "Activity", "setting": "3T3-L1 [3]", "result": 77.6, "unit": "%"}, {"measurement": "inhibition at 5 µM", "setting": "3T3-L1 [4]", "result": 71.1, "unit": "%"}, {"measurement": "Activity", "setting": "Mus musculus [5]", "result": "Active"}, {"measurement": "Activity", "setting": "Mus musculus [6]", "result": "Active"}, {"measurement": "Activity", "setting": "3T3-L1 [7]", "result": 74.2, "unit": "%"}, {"measurement": "Activity", "setting": "Mus musculus [8]", "result": "Active"}, {"measurement": "Activity", "setting": "Mus musculus [9]", "result": "Active"}, {"measurement": "IC50", "setting": "HepG2 [10]", "result": 25.1, "unit": "µM"}, {"measurement": "Activity", "setting": "3T3-L1 [11]", "result": "Active"}, {"measurement": "Activity", "setting": "3T3-L1 [12]", "result": 66.1, "unit": "%"}, {"measurement": "Activity", "setting": "Mus musculus [13]", "result": "Active"}, {"measurement": "Activity", "setting": "3T3-L1 [14]", "result": "Dose-dependent effect"}, {"measurement": "EC50", "setting": "3T3-L1 [14]", "result": 0.24, "unit": "µM"}, {"measurement": "Activity", "setting": "Mus musculus [15]", "result": "Dose-dependent effect"}, {"measurement": "inhibition at 5 µM", "setting": "3T3-L1 [16]", "result": 22.1, "unit": "%"}, {"measurement": "Activity", "setting": "Mus musculus [17]", "result": "Active"}, {"measurement": "Activity", "setting": "Mus musculus [18]", "result": "Dose-dependent effect"}, {"measurement": "Activity", "setting": "Mus musculus [19]", "result": "Active"}, {"measurement": "Activity", "setting": "3T3-L1 [20]", "result": "Non-Toxic"}, {"measurement": "Activity", "setting": "Mus musculus [21]", "result": "Dose-dependent effect"}, {"measurement": "IC50", "setting": "3T3-L1 [22]", "result": 37.7, "unit": "µM"}, {"measurement": "inhibition at 5 µM", "setting": "3T3-L1 [23]", "result": 51.6, "unit": "%"}, {"measurement": "Activity", "setting": "3T3-L1 [24]", "result": 80.5, "unit": "%"}, {"measurement": "Activity", "setting": "Mus musculus [25]", "result": "Dose-dependent effect"}, {"measurement": "Activity", "setting": "Mus musculus [26]", "result": "Dose-dependent effect"}, {"measurement": "Activity", "setting": "3T3-L1 [27]", "result": 79.1, "unit": "%"}, {"measurement": "Activity", "setting": "Mus musculus [28]", "result": "Active"}, {"measurement": "inhibition", "setting": "3T3-L1 [29]", "result": "Active"}, {"measurement": "Activity", "setting": "3T3-L1 [30]", "result": "Active"}, {"measurement": "Activity", "setting": "HepG2 [31]", "result": 20.8, "unit": "%"}, {"measurement": "Activity", "setting": "Mus musculus [32]", "result": "Active"}, {"measurement": "Activity", "setting": "3T3-L1 [33]", "result": 60.8, "unit": "%"}]}
{"compound": "O=Cc1c(-c2nc3ccccc3c(=O)[nH]2)[nH]c2ccccc12", "values": [{"measurement": "IC50", "setting": "HepG2 [10]", "result": "> 50", "unit": "µM"}, {"measurement": "solubility", "setting": "[34]", "result": "Insoluble"}, {"measurement": "IC50", "setting": "3T3-L1 [22]", "result": "> 50", "unit": "µM"}, {"measurement": "Activity", "setting": "3T3-L1 [27]", "result": 20.1, "unit": "%"}, {"measurement": "Activity", "setting": "3T3-L1 [30]", "result": "Active"}, {"measurement": "Activity", "setting": "HepG2 [31]", "result": 24.1, "unit": "%"}]}
